From US8044053B2, “Sulfonamide substituted pyrazoline compounds, their preparation and use as CB1 modulators” (Laboratories del Dr. Esteve, S.A., priority 2006, dated 2011) come the findings set out here.

Test [1] concerns the target CB1-receptor (UniProt P20272). In words: In-vitro determination of affinity (binding) to CB1-receptors, radioligand [3H]-CP55940. The settings on record: Pharmacological Methods Part I. Details: IC50; Ki; species or system human or rat. The procedure, abridged: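 Rat cerebellum membranes (male Wistar; 100 μg protein) competed against 1 nM [3H]-CP 55,940 for 1 h at 30° C in Tris-HCl pH 7.4 with MgCl2, EDTA, 0.5% BSA; nonspecific binding with 10 μM HU-210. Filtration then scintillation counting, triplicates, non-linear regression.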

Test [2] concerns the target CB1-receptor (UniProt P20272). Described as above. As to conditions: compound at 10^−7 M. Set-up: % inh; 10^−7 M; compound at 10^−7 M; species or system human or rat. As for the experimental part: I. In-Vitro Determination of Affinity to CB1/CB2-Receptors
The in-vitro determination of the affinity of the inventive substituted pyrazoline compounds to CB1/CB2-Rezeptors is carried out as described in the publication of Ruth A. Ross, Heather C. Brockie et al., “Agonist-inverse agonist characterisation at CB1 and CB2 cannabinoid receptors of L-759633, L759656 and AM630”, British Journal of Pharmacology, 126, 665-672, (1999), whereby the transfected human CB1 and CB2 receptors of Receptor Biology, Inc. are used. The radioligand used for both receptors is [^3H]-CP55940. The respective parts of the description is hereby incorporated by reference and forms part of the present disclosure.
Rat Cerebellum CB1 Binding
Binding affinity to CB1 receptor was evaluated according to a modification of the method described by Govaerts et al., Eur J Pharmac Sci 23, 233-243 (2004). The respective parts of the description is hereby incorporated by reference and forms part of the present disclosure.
Briefly, cerebellum from male wistar rats (250-300 g) were carefully dissected on ice and homogenates were prepared with Potter-Helveheim in a cold 50 mM Tris-HCl solution containing 5 mM MgCl2, 1 mM EDTA and 0.25 M sucrose, pH 7.4. The suspension was centrifuged at 1,000×g for 5 minutes. The supernatants were collected and centrifuged 50,000×g for 15 minutes. The resulting pellets were then resuspended in Tris-HCl buffer without sucrose, homogenised and incubated for 15 min at 37° C. in an orbital shaker bath and centrifuged again at 50,000×g for 15 min. Pellets were weighted, resuspended in Tris-HCl buffer without sucrose, homogenised with Ultraturrax at 13,500 rpm for 3×5 seconds and alicuoted in 0.9 ml volumes in Eppendorf tubes. Alicuotes were centrifuged at 20,800×g for 5 minutes, supernatants discarded and pellets were frozen at −80° C. until use. Total protein concentration was determined using the Bio-Rad Lowry method based kit. Competitive binding experiments were performed in presence of 1 nM [^3H]-CP 55,940 in siliconised glass tubes containing 100 μg protein/tube resuspended in 1 ml final volume of 50 mM Tris-HCl, 5 mM MgCl2, 1 mM EDTA, 0.5% (w/v) bovine serum albumin, pH 7.4. Compounds were present at various concentrations and the non specific binding was determined in the presence of 10 μM HU-210. After 1 hour incubation at 30° C., the suspension was rapidly filtered through 0.5% PEI pre-treated GF/B fiber filters on a 96-well harvester and washed 3 times with 3 ml ice-cold binding buffer without bovine serum albumin. Radioactivity on filters was measured with Wallac Winspectral 1414 counter by liquid scintillation in 6 ml Ecoscint H (National Diagnostics, U.K.). Assays were made in triplicates.
Binding data were analysed by non-linear regression with the software GraphPad Prism Version 3.03.
The binding of the pyrazoline compounds of general formulae I, Ia and Ib to CB1-receptors was determined according to the method described in the section Pharmacological Methods, Part I.

As a reminder, the IC50 is the midpoint of a concentration-inhibition curve. With `Cc1cccc(Cl)c1S(=O)(=O)NCC1=NN(c2ccc(Cl)cc2Cl)C(c2ccc(Cl)cc2)C1` (stereo not drawn) [Example 34, 2-Chloro-N-[5-(4-chloro-phenyl)-1-(2,4-dichloro-phenyl)-4,5-dihydro-1H-pyrazol-3-ylmethyl]-6-methyl-benzenesulfonamide], the IC50 on CB1-receptor [1] came out at 0.0141 µM. Also, the “% inh. 10^−7 M” value on CB1-receptor [2] came to 53.8%.
In turn, `O=S(=O)(NCC1=NN(c2ccc(Cl)cc2Cl)C(c2ccc(Cl)cc2)C1)C1=C(Cl)NC2SC=CN12` (stereo not drawn) [Example 32, 6-Chloro-7,7a-dihydro-imidazo[2,1-b]thiazole-5-sulfonic acid [5-(4-chloro-phenyl)-1-(2,4-dichloro-phenyl)-4,5-dihydro-1H-pyrazol-3-ylmethyl]-amide] yielded a concentration for half-maximal inhibition (IC50) at CB1-receptor [1] of 0.121 µM. For the same molecule, the “% inh. 10^−7 M” value at CB1-receptor [2] turned out to be 20.0%.
A word on the Ki: it is a measure of affinity in units of concentration, obtained from inhibition or displacement. Higher therefore signals a looser hold on the target. On CB1-receptor [1], `Cc1cc(C)c(S(=O)(=O)NCC2=NN(c3ccc(Cl)cc3Cl)C(c3ccc(Cl)cc3)C2)c(C)c1` (stereo not drawn) [Example 40, N-[5-(4-Chloro-phenyl)-1-(2,4-dichloro-phenyl)-4,5-dihydro-1H-pyrazol-3-ylmethyl]-2,4,6-trimethyl-benzenesulfonamide] yielded an IC50 of 0.097 µM and a Ki of 0.0439 µM. In addition, the “% inh. 10^−7 M” value at CB1-receptor [2] is reported as 51.9%.
On CB1-receptor [1], `O=S(=O)(Cc1ccccc1)NCC1=NN(c2ccc(Cl)cc2Cl)C(c2ccc(Cl)cc2)C1` (stereo not drawn) [Example 12, N-[5-(4-Chloro-phenyl)-1-(2,4-dichloro-phenyl)-4,5-dihydro-1H-pyrazol-3-ylmethyl]-C-phenyl-methanesulfonamide] registered an IC50 of 0.13 µM. Also, the “% inh. 10^−7 M” value at CB1-receptor [2] is 39.4%.
